{
  "source": "patent US6365652B2",
  "about": "“Trisaryl-1,3,5-triazine ultraviolet light absorbers” (Ciba Specialty Chemicals Corporation, priority 1997, dated 2002)",
  "key": {"[1]": {"test": "Solubility in solvent mixture (1:1:1 xylenes:MAK:PM acetate)", "format": "physicochemical", "text": "Compound E (the disubstituted amide) was compared against Compound B (the monosubstituted amide) for solubility in a 1:1:1 mixture of xylenes:methyl amyl ketone (MAK):propylene glycol methyl ether acetate (PM acetate), which is a typical coatings solvent mixture."}, "[2]": {"test": "Compatibility with acrylic urethane Component I (polyol component of two-component clearcoat)", "format": "physicochemical", "details": "for Compatibility in fully formulated coating: after addition of DESMODUR N-3390 and 17 parts solvent mixture", "text": "Compound E was again compared against Compound B, this time for compatibility in the following resin formulation which is the polyol component of a typical two-component acrylic urethane clearcoat formulation:\n100 parts Acrylic Resin—JONCRYL® CDX-588 (70% Solids) (S.C. Johnson & Son, Inc., Racine, Wis.\n5 parts—1 part Dibutyltin Dilaurate (T-12, Air Products, Allentown, Pa.)\n45 parts Solvent Mixture (1:1:1 xylenes:MAK:PM Acetate)\n1 part Hindered Amine Light Stabilizer (SANDUVOR® S-3055, Clariant Corp., Charlotte, N.C.)."}, "[3]": {"test": "Bonding/migration in acrylic/melamine clearcoat on RIM substrate, microtome UV depth profile at 340 nm", "details": "3% on total resin solids, cure 30 min at 135° C.", "experimental": "Compound E was investigated to determine whether it forms a chemical bond with the acrylic/melamine resin matrix during curing. For this purpose, it was added to a clearcoat formulation and coated onto a plastic substrate, as described below. Non-bondable UV absorbers readily migrate from clearcoats into plastic substrates upon curing the coating. An absorber which bonds to the matrix should not migrate into the plastic substrate to any significant extent.\nThe acrylic/melamine resin formulation utilized was as follows: […]\n40.6 g JONCRYL® 510 acrylic resin (S.C. Johnson, Inc. Racine, Wis.)\n17.5 g CYMEL® 303 crosslinker (Cytec Industries, Inc., West Paterson, N.J.)\n0.52 g CYCAT® 4040 catalyst (Cytec Industries, Inc., West Paterson, N.J.)\n0.50 g DC 57 flow control agent […]\nAfter cure, the coating and part of the substrate were microtomed into 10 μm thick slices parallel to the coating surface. […] Each microtomed slice was mounted between two microscope slides and its UV absorption spectrum measured using a Perkin-Elmer Lambda 2 spectrophotometer. The absorbance per micrometer sample thickness was determined at the prominent 340 nm absorption band intrinsic to this UVA.\nThe results of the UV analysis were plotted as a function of depth. […] By measuring the area under the curve, the quantity of Compound E remaining in the coatings and the fraction that migrated into the substrates were estimated. […]"}, "[4]": {"test": "QUV accelerated weathering (UVB-313 bulbs) of acrylic urethane clear coat", "details": "Example 10", "text": "Compounds D and E were formulated in clear coatings which were applied to panels for accelerated weathering testing as follows. Compound D or E (1% or 2% based on total resin solids) and/or SANDUVOR® S-3055 HALS-type stabilizer (1% based on total resin solids) were predissolved in the solvent mixture (to a 5-10% solids level) and added to the clear acrylic urethane formulation given in Table 3 below. Components I and II were mixed just before use. Cold roll steel panels measuring 4″×12″ and precoated with an electro-coat primer ED505A and a white polyester acrylic melamine base-coat #542AB839, obtained from ACT Laboratories, Inc. (Hillsdale, Mich.) were coated with the clear coating formulations of Table 3. The draw-down technique, using WC-60 WireCators™ (Leneta Co., Hohokus, N.J.), was used to apply the clear coat to the pre-coated panels. The clear coats were allowed to flash for 10 min at ambient temperature and cured for 30 min at 135° C.\nAccelerated weathering was carried out on the clear coating formulations using a QUV device equipped with UVB-313 fluorescent bulbs. […] Specular properties such as gloss ([…], ASTMD523) and distinctness of image (“DOI”) (Dorigon Meter D47R-6FT, Hunter Associate Laboratory) and yellowing (“Delta b”) were measured as a function of weathering time. […]"}, "[5]": {"details": "1 wt % on total resin solids, 5° C."}, "[6]": {"details": "1 wt % on total resin solids, 23° C."}, "[7]": {"details": "1 wt % on total resin solids, 60° C."}},
  "data": [
    {"smiles": "Cc1ccc(-c2nc(-c3ccc(C)cc3C)nc(-c3ccc(OCC(=O)NCCO)cc3O)n2)c(C)c1", "note": "[Compound B, 4-[4,6-Bis(2′4′-dimethylphenyl)-1,3,5-triazin-2-yl]-3-hydroxyphenoxyacetic acid, N-(2-hydroxyethyl)amide, reference compound]", "values": [
      {"measurement": "Solubility", "setting": "[1]; 5 wt %, 5° C.", "value": "No"},
      {"measurement": "Solubility", "setting": "[1]; 5 wt %, 23° C.", "value": "No"},
      {"measurement": "Solubility", "setting": "[1]; 5 wt %, 50° C.", "value": "did not dissolve"},
      {"measurement": "Solubility", "setting": "[1]; 5 wt %, 50° C., listed as CEX1 (B)", "value": "No"},
      {"measurement": "Compatibility", "setting": "[2]; [5]", "value": "not compatible"},
      {"measurement": "Compatibility", "setting": "[2]; 1 wt % on total resin solids, 5° C., listed as CEX1 (B)", "value": "No"},
      {"measurement": "Compatibility", "setting": "[2]; [6]", "value": "not compatible"},
      {"measurement": "Compatibility", "setting": "[2]; 1 wt % on total resin solids, 23° C., listed as CEX1 (B)", "value": "No"},
      {"measurement": "Compatibility", "setting": "[2]; [7]", "value": "not compatible"},
      {"measurement": "Compatibility", "setting": "[2]; 1 wt % on total resin solids, 60° C., listed as CEX1 (B)", "value": "No"},
      {"measurement": "Compatibility in fully formulated coating", "setting": "[2]", "value": "did not result in the dissolution"}
    ]},
    {"smiles": "CCCCN(CCO)C(=O)COc1ccc(-c2nc(-c3ccc(C)cc3C)nc(-c3ccc(C)cc3C)n2)c(O)c1", "note": "[Compound E, 4-[4,6-Bis(2′4′-dimethylphenyl)-1,3,5-triazin-2-yl]-3-hydroxyphenoxyacetic acid, N-(n-butyl)-N-(2-hydroxyethyl)amide]", "values": [
      {"measurement": "Solubility", "setting": "[1]; 5 wt %, 5° C.", "value": "Yes"},
      {"measurement": "Solubility", "setting": "[1]; 5 wt %, 23° C.", "value": "Yes"},
      {"measurement": "Solubility", "setting": "[1]; 5 wt %, 50° C.", "value": "Yes"},
      {"measurement": "Solubility", "setting": "[1]; 10 wt %, 5° C.", "value": "did not crystallize out of solution"},
      {"measurement": "Solubility", "setting": "[1]; 10 wt %, 5° C., listed as EX1 (E)", "value": "Yes"},
      {"measurement": "Solubility", "setting": "[1]; 10 wt %, 23° C.", "value": "Yes"},
      {"measurement": "Solubility", "setting": "[1]; 10 wt %, 50° C.", "value": "Yes"},
      {"measurement": "Dissolution in the solvent mixture", "setting": "[1]; 10 wt %, temperature not stated", "value": "fully dissolved"},
      {"measurement": "Compatibility", "setting": "[2]; [5]", "value": "Yes"},
      {"measurement": "Compatibility", "setting": "[2]; [6]", "value": "Yes"},
      {"measurement": "Compatibility", "setting": "[2]; [7]", "value": "Yes"},
      {"measurement": "Compatibility", "setting": "[2]; 2 wt % on total resin solids, 5° C.", "value": "Yes"},
      {"measurement": "Compatibility", "setting": "[2]; 2 wt % on total resin solids, 23° C.", "value": "Yes"},
      {"measurement": "Compatibility", "setting": "[2]; 2 wt % on total resin solids, 60° C.", "value": "Yes"},
      {"measurement": "Compatibility with the resin component", "setting": "[2]; 5° C., concentration not given", "value": "compatible"},
      {"measurement": "Compatibility in fully formulated coating", "setting": "[2]", "value": "nor did it adversely affect the compatibility"},
      {"measurement": "Fraction of added compound remaining in the coating", "setting": "[3]", "value": "about 95%"},
      {"measurement": "Lifetime of coating compositions (percent gloss retention, percent DOI retention, delta b) compared to the unstabilized composition", "setting": "[4]", "value": "extend the lifetime"}
    ]}
  ]
}
